Read-outs that look alike come from different tables or passages of the source.
Assays:
[1] = test system: Respiratory Syncytial Virus (RSV) long strain; experiment: microbe, parasite or virus in culture; assay type: cell-based; conditions: Tables A and B list compounds by EC50 band
Outline: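 CPE-reduction format: viability measured colorimetrically with CCK-8 (450 nm, 630 nm reference) after 3-4 h, following 5-day infection at 37 °C, 5% CO2. Cells were HEp-2; inoculum 100 TCID50/well; duplicate 9-point 1/3 series starting at 100 μM or 1 μM.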

[2] = Cytotoxicity Determination (CCK-8, without addition of virus); assay type: cell-based; conditions: human, 50% cytotoxicity concentration (CC50)
Outline: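 Cytotoxicity was measured by CCK-8 after 3-4 hours at 37 °C, following 5 days of uninfected exposure at 37 °C and 5% CO2. Compounds ran as duplicate 7-point 1/2 dilutions starting at 100 μM, with 1% final DMSO. HEp-2 cells had been plated at 1,500/well the day before.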

recombinant RSV complex = recombinant RSV complex (Human respiratory syncytial virus A, UniProt P28887); experiment: RSV Polymerase Inhibition Assay; assay type: biochemical
Outline: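 Inhibition measured as reduced incorporation of radiolabel into RNA products, detected by scintillation counting. Reactions: recombinant RSV complex (10 nM), RNA oligonucleotides, Tris-HCl pH 7.5, 6 mM MgCl2, inhibitor titration, 2 h at 30 °C, EDTA stop.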

RSV replicon = experiment: microbe, parasite or virus in culture; assay type: cell-based; conditions: read-out: EC50, the concentration of the drug required for reducing RSV replicon RNA by 50%
[3] = human respiratory syncytial virus, HEp-2, 120 h, read-out: 50% effective concentration (EC50), HEp-2 cells infected with RSV long strain, 5 days, CCK-8 readout
[4] = human respiratory syncytial virus
[5] = human respiratory syncytial virus, 120 h, read-out: 50% effective concentration (EC50), HEp-2 cells infected with RSV long strain, 5 days, CCK-8 readout

Sequence of recombinant RSV complex (P28887 whole entry): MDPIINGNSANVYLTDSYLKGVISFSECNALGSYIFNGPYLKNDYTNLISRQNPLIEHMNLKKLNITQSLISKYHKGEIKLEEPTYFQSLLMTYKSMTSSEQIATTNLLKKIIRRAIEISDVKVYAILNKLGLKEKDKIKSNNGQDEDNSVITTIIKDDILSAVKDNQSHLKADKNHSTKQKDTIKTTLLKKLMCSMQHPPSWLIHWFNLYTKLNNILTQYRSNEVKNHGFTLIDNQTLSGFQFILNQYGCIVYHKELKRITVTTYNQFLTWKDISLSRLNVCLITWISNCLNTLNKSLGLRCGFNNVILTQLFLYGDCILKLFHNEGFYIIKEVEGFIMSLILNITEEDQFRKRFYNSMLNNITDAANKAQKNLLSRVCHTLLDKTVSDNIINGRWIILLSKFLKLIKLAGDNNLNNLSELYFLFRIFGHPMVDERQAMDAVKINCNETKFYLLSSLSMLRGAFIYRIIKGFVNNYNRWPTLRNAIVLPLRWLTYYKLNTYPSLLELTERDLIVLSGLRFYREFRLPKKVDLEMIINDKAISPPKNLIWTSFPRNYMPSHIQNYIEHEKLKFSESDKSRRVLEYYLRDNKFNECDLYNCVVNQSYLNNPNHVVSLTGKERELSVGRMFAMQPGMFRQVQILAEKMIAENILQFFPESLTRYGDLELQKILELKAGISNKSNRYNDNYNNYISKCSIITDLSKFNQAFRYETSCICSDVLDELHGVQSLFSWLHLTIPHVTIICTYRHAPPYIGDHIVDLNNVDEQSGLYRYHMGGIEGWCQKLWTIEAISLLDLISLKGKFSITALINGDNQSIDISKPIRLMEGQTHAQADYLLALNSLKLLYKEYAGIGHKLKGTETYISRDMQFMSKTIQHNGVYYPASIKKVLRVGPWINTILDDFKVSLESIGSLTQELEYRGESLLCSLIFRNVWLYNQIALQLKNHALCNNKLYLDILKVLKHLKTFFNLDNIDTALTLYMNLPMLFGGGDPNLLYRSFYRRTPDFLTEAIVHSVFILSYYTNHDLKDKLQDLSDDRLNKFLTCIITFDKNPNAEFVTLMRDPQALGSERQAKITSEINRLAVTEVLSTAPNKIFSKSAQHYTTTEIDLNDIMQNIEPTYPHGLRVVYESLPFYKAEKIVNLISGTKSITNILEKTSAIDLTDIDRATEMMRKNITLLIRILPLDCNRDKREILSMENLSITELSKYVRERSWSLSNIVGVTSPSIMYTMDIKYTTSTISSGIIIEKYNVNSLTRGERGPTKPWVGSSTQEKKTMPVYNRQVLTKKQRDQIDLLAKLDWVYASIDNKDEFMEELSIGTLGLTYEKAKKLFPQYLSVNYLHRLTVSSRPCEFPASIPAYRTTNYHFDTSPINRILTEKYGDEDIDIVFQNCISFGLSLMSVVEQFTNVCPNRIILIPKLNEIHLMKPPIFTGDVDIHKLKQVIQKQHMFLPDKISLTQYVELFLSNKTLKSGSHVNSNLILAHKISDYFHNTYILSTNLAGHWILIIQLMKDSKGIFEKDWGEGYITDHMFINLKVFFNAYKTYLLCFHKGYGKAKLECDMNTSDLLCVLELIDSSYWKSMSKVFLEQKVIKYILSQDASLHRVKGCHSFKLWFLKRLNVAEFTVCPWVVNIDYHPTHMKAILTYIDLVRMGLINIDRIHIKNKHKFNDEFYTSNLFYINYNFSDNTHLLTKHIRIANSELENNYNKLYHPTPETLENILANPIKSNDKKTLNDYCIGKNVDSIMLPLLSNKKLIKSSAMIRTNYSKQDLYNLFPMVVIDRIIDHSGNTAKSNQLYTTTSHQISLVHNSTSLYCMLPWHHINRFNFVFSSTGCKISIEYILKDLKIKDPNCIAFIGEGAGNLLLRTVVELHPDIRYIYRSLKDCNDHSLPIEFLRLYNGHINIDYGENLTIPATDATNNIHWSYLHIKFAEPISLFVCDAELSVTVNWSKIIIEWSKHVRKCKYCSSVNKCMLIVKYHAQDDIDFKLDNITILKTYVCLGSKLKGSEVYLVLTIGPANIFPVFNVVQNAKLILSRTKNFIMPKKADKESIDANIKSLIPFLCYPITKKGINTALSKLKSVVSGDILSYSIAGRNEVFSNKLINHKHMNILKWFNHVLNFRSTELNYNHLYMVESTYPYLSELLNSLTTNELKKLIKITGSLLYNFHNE
Sequence of recombinant RSV complex (P03421 whole entry, further chain): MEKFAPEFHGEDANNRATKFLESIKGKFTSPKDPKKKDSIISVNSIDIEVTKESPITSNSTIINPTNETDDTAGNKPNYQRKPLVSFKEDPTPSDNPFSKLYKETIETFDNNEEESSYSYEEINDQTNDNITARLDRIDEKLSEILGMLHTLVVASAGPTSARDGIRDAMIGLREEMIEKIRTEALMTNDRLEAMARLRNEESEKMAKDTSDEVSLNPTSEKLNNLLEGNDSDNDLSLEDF

Row | SMILES | EC50 [1, 3] [µM] | CC50 at 5 days [2] [µM] | IC50 (recombinant RSV complex) [µM] | EC50 (RSV replicon; [4]) [µM] | EC50 [1, 5] [µM] | EC50 ([1]; read-out: 50% effective concentration (EC50), HEp-2 cells infected with RSV long strain, 5 days, CCK-8 readout) [µM] | IC50 (recombinant RSV complex; read-out: IC50 (compound concentration at which the enzyme-catalyzed rate was reduced by 50%), 10 nM recombinant RSV complex, 2 h at 30° C., Tables E, F and G list compounds by IC50 band) [µM] | EC50 (RSV replicon; RSV replicon, 395 HeLa or APC126 cells, value given by membership in Table H / Table I) [µM]
1 | CCOc1ccc(C(=O)NCC(C)(O)c2ccc(OC)c(-c3c[nH]c4c(F)cccc34)n2)cc1OC (racemic) [Compound 116] | < 1 | 10 to 100 | < 1 | < 1 | – | – | – | –
2 | COc1cc(C(=O)NCC(C)(O)c2ccc(OC)c(-c3c[nH]c4c(F)cccc34)n2)ccc1OCCO (racemic) [Compound 117] | < 1 | 10 to 100 | < 1 | < 1 | – | – | – | –
3 | COc1cc(C(=O)NCC(C)(O)c2ccc(OC)c(-c3ccc(F)c(Br)c3)n2)ccc1OCCF (racemic) [Compound 118] | < 1 | 10 to 100 | < 1 | < 1 | – | – | – | –
4 | COc1cc(C(=O)NCC(O)(c2cc(C(C)(C)N)cc(-c3ccc(F)c(Cl)c3)n2)C(F)(F)F)ccc1OC1CC1 (single isomer, unassigned) [Compound 272] | < 1 | – | < 1 | < 1 | – | – | – | –
5 | COc1ccc(C(=O)NCC(O)c2cccc(-c3csc4c(F)cccc34)n2)cc1OC (centres unmarked) [Compound 106] | – | 10 to 100 | – | < 1 | 1 to 50 | – | – | –
6 | COc1cc(C(=O)NCC2(c3cccc(-c4csc5c(F)cccc45)n3)COC2)ccc1OCCO [Compound 163] | – | 10 to 100 | – | 1 to 50 | – | – | – | –
7 | COc1cc(C(=O)NCC(O)(Cn2cccn2)c2ccc(OC)c(-c3ccc(F)c(Cl)c3)n2)ccc1OCCO (centres unmarked) [Compound 184] | – | – | – | – | – | < 1 | < 1 | < 1
8 | COc1cc(C(=O)NCC(O)(c2ccc(OC)c(-c3ccc(F)c(Cl)c3)n2)c2cnn(C)n2)ccc1OCCO (centres unmarked) [Compound 198] | < 1 | – | < 1 | < 1 | – | – | – | –
9 | CC(C)(N)c1cc(-c2ccc(F)c(Cl)c2)nc(C(O)(CNC(=O)c2ccc3c(c2)OCCO3)C(F)(F)F)c1 (centres unmarked) [Compound 273] | < 1 | – | < 1 | < 1 | – | – | – | –
10 | CC(C)(N)c1cc(-c2ccc(F)c(Cl)c2)nc(C(O)(CNC(=O)c2ccc3c(c2)OC(F)(F)O3)C(F)(F)F)c1 (centres unmarked) [Compound 275] | 1 to 50 | – | < 1 | < 1 | – | – | – | –
11 | CC(C)(N)c1cc(-c2ccc(F)c(Cl)c2)nc(C(O)(CNC(=O)c2ccc(OC3CCNC3=O)c(Cl)c2)C(F)(F)F)c1 (centres unmarked) [Compound 281] | < 1 | – | < 1 | < 1 | – | – | – | –
12 | CC(C)(N)c1cc(-c2ccc(F)c(Cl)c2)nc(C(O)(CNC(=O)c2ccc(OC3CC3)c(Cl)c2)C(F)(F)F)c1 (centres unmarked) [Compound 282] | < 1 | – | < 1 | < 1 | – | – | – | –
13 | COc1cc(C(=O)NCC(O)(c2cc(C(C)(C)N)cc(-c3ccc(F)c(Cl)c3)n2)C(F)(F)F)ccc1OC1CC1 (centres unmarked) [Compound 314] | < 1 | – | < 1 | < 1 | – | – | – | –
14 | COc1cc(C(=O)NCC(O)(c2cc(C(C)(C)N)cc(-c3ccc(F)c(Cl)c3)n2)C(F)(F)F)ccc1OC1CC(F)C1 (centres unmarked) [Compound 323] | < 1 | – | < 1 | < 1 | – | – | – | –
15 | COc1cc(C(=O)NCC(O)(c2cc(C(C)(C)N)cc(-c3ccc(F)c(Cl)c3)n2)C(F)(F)F)ccc1OC1CC1(F)F (centres unmarked) [Compound 324] | < 1 | – | < 1 | < 1 | – | – | – | –
16 | COc1cc(C(=O)NCC(O)(c2cc(C(C)(C)N)cc(-c3ccc(F)c(Cl)c3)n2)C(F)(F)F)ccc1OCC(F)(F)F (centres unmarked) [Compound 325] | < 1 | – | < 1 | < 1 | – | – | – | –
17 | COc1cc(C(=O)NCC(O)(c2ccc(OC)c(-c3ccc(F)c(Cl)c3)n2)C(F)(F)F)ccc1OC[C@@H](C)O (some centres unmarked) [Compound 336] | < 1 | 10 to 100 | – | < 1 | – | – | – | –
18 | COc1cc(C(=O)NCC(O)(c2ccc(OC)c(-c3ccc(F)c(Cl)c3)n2)C(F)(F)F)ccc1OC(C)C(N)=O (centres unmarked) [Compound 338] | < 1 | 10 to 100 | – | < 1 | – | – | – | –
19 | COc1ccc(C(O)(CNC(=O)c2cc(OC)c3ncccc3c2)C(F)(F)F)nc1-c1ccc(F)c(Cl)c1 (centres unmarked) [Compound 339] | < 1 | 10 to 100 | – | < 1 | – | – | – | –
20 | COc1cc(C(=O)NCC(O)(c2cc3c(c(-c4ccc(F)c(Cl)c4)n2)OCCC3(C)C)C(F)(F)F)ccc1OC1CC1 (centres unmarked) [Compound 345] | < 1 | > 100 | – | < 1 | – | – | – | –
21 | COc1cc(C(=O)NCC(O)(c2cc3c(c(-c4ccc(F)c(Cl)c4)n2)OCCC3(C)C)C(F)(F)F)ccc1OC[C@@H](C)O (some centres unmarked) [Compound 346] | < 1 | 10 to 100 | – | < 1 | – | – | – | –

Row | SMILES | EC50 [1, 3] [µM] | CC50 at 5 days [2] [µM] | IC50 (recombinant RSV complex) [µM] | EC50 (RSV replicon; [4]) [µM] | EC50 [1, 5] [µM] | EC50 ([1]; read-out: 50% effective concentration (EC50), HEp-2 cells infected with RSV long strain, 5 days, CCK-8 readout) [µM] | IC50 (recombinant RSV complex; read-out: IC50 (compound concentration at which the enzyme-catalyzed rate was reduced by 50%), 10 nM recombinant RSV complex, 2 h at 30° C., Tables E, F and G list compounds by IC50 band) [µM] | EC50 (RSV replicon; RSV replicon, 395 HeLa or APC126 cells, value given by membership in Table H / Table I) [µM]
22 | COc1cc(C(=O)NCC(O)(c2cc3c(c(-c4ccc(F)c(Cl)c4)n2)OCCC3(C)C)C(F)(F)F)ccc1OCC(N)=O (centres unmarked) [Compound 347] | < 1 | 10 to 100 | – | < 1 | – | – | – | –
23 | COc1cc(C(=O)NCC(O)(c2cc3c(c(-c4ccc(F)c(Cl)c4)n2)OCCC3(C)C)C(F)(F)F)ccc1OC1CCNC1=O (centres unmarked) [Compound 348] | < 1 | 10 to 100 | – | < 1 | – | – | – | –
24 | COc1cc(C(=O)NCC(O)(c2cc(C(C)(C)O)cc(-c3ccc(F)c(Cl)c3)n2)C(F)(F)F)ccc1OC1CC1 (centres unmarked) [Compound 386] | – | 10 to 100 | < 1 | < 1 | – | – | – | –
25 | CNC(C)(C)c1cc(-c2ccc(F)c(Cl)c2)nc(C(O)(CNC(=O)c2ccc(OC3CC3)c(OC)c2)C(F)(F)F)c1 (centres unmarked) [Compound 394] | < 1 | – | < 1 | < 1 | – | – | – | –
26 | CCOc1ccc(C(=O)NCC(O)(c2cc3c(c(-c4ccc(F)c(Cl)c4)n2)OCC3(C)N)C(F)(F)F)cc1Cl (centres unmarked) [Compound 494] | < 1 | – | < 1 | < 1 | – | – | – | –
27 | COc1cc(C(=O)NCC(O)(c2cc(C(C)(C)NC(=O)CN)cc(-c3ccc(F)c(Cl)c3)n2)C(F)(F)F)ccc1OC1CC1 (centres unmarked) [Compound 497] | < 1 | – | < 1 | < 1 | – | – | – | –
28 | COc1cc(C(=O)NCC(O)(c2cc3c(c(-c4ccc(F)c(Cl)c4)n2)OCC3(C)NCCN)C(F)(F)F)ccc1OC1CC1 (centres unmarked) [Compound 499] | < 1 | – | < 1 | < 1 | – | – | – | –
29 | COCCNC(C)(C)c1cc(-c2ccc(F)c(Cl)c2)nc(C(O)(CNC(=O)c2ccc(OC3CC3)c(OC)c2)C(F)(F)F)c1 (centres unmarked) [Compound 505] | < 1 | – | < 1 | < 1 | – | – | – | –
30 | COc1cc(C(=O)NCC(O)(c2cc(C(C)(C)NCCN)cc(-c3ccc(F)c(Cl)c3)n2)C(F)(F)F)ccc1OC1CC1 (centres unmarked) [Compound 508] | < 1 | – | < 1 | < 1 | – | – | – | –
31 | COc1cc(C(=O)NCC(O)(c2cc(C(C)(C)N)cc(-c3c[nH]c4c(F)cccc34)n2)C(F)(F)F)ccc1OC1CC1 (centres unmarked) [Compound 519] | < 1 | – | < 1 | < 1 | – | – | – | –
32 | COc1cc(C(=O)NCC(O)(c2cc(C(C)(C)N)cc(-c3ccc(Cl)cc3)n2)C(F)(F)F)ccc1OC1CC1 (centres unmarked) [Compound 520] | – | – | < 1 | < 1 | < 1 | – | – | –
33 | COc1cc(C(=O)NCC(O)(c2cc(C(C)(C)N)cc(-c3ccc(F)c(C(F)(F)F)c3)n2)C(F)(F)F)ccc1OC1CC1 (centres unmarked) [Compound 521] | < 1 | – | < 1 | < 1 | – | – | – | –
34 | COc1cc(C(=O)NCC(O)(c2cc3c(c(-c4ccc(C#N)cc4)n2)OCC3(C)N)C(F)(F)F)ccc1OC1CC1 (centres unmarked) [Compound 542] | – | 10 to 100 | – | < 1 | < 1 | – | – | –
35 | COc1cc(C(=O)NCC(O)(c2cc(C(C)(C)N)cc(-c3ccc(F)c(Cl)c3)n2)C(F)(F)F)ccc1OCC(=O)O (centres unmarked) [Compound 578] | – | 10 to 100 | < 1 | < 1 | – | – | – | –
36 | COc1cc(C(=O)NC[C@](O)(c2cc3c(c(-c4ccc(C#N)cc4)n2)OC[C@]3(C)N)C(F)(F)F)ccc1OCCO [Compound 604d] | < 1 | – | < 1 | < 1 | – | – | – | –
37 | COc1cc(C(=O)NCC(O)(c2cc3c(c(-c4ccc(Br)cc4)n2)OCC3(C)N)C(F)(F)F)ccc1OCCO (centres unmarked) [Compound 651] | – | – | < 1 | < 1 | – | – | – | –
38 | COc1cc(-c2cc(C(C)(C)N)cc(C(O)(CNC(=O)c3ccc(OCCO)c(OC)c3)C(F)(F)F)n2)ccn1 (centres unmarked) [Compound 659] | – | – | < 10 | < 1 | – | – | – | –
39 | COc1cc(C(=O)NCC(O)(c2cc(C(C)(C)N)cc(-c3ccc(F)c(Cl)c3)n2)C2CC2)ccc1OC1CC1 (centres unmarked) [Compound 667] | < 1 | – | < 1 | < 1 | – | – | – | –
40 | COc1cc(C(=O)NCC(O)(c2cc3c(c(-c4ccc(CO)cc4)n2)OCC3(C)N)C(F)(F)F)ccc1OCCO (centres unmarked) [Compound 672] | – | > 100 | < 10 | < 1 | – | – | – | –
41 | COc1cc(C(=O)NCC(O)(c2cc3c(c(-c4ccc(C(=O)O)cc4)n2)OCC3(C)N)C(F)(F)F)ccc1OCCO (centres unmarked) [Compound 675] | – | > 100 | – | < 1 | – | – | – | –
